Measurements reported in patent US20130065922A1, “NOVEL AMIDES AS FUNGICIDES” (priority 2010, published 2013).
Read-outs that look alike come from different tables or passages of the source.

Key:
Plasmopara viticola = test: whole plant or invertebrate; type: in vivo; settings: foliar, read-out: inhibit fungal infestation
[1] = test system: Blumeria graminis f. Sp. tritici (Erysiphe graminis f. Sp. tritici); test: Blumeria graminis f. Sp. tritici (Erysiphe graminis f. Sp. tritici)/Wheat/Leaf Disc Preventative (Powdery Mildew on Wheat); type: in vivo; settings: foliar, read-out: inhibit fungal infestation
Pythium ultimum = test: Pythium ultimum/Liquid Culture (Seedling Damping Off); type: cell-based; settings: Globisporangium ultimum; 200 ppm; liquid culture (PDB), 24° C., growth inhibition photometrically 2-3 days after application; read-out: inhibit fungal infestation
[2] = 200 ppm, wheat leaf segments cv. Kanzler, preventative, 6-8 days after application, untreated control infected to over 80%

## COC(Oc1cc(C)c2ncc(SC)cc2c1)C(=O)NC1CCC1 (stereo not shown)
other
  melting point: 132 to 134 °C

## CSc1cnc2ccc(OC(SC)C(=O)NC(C)(C)CCF)cc2c1 (stereo not shown) [Compound 67, N-(3-Fluoro-1,1-dimethyl-propyl)-2-methylsulfanyl-2-(3-methylsulfanyl-quinolin-6-yloxy)-acetamide]
Plasmopara viticola
  inhibition at 200 ppm: ≥ 80%
[1]; [2]
  inhibition at 200 ppm: ≥ 80%

## C#CC(C)(C)NC(=O)C(OC)Oc1ccc2ncc(SC)cc2c1 (stereo not shown)
other
  melting point: 123 to 125 °C

## COC(Oc1ccc2ncc(SC)cc2c1)C(=O)NC1(C)CCC1 (stereo not shown)
other
  melting point: 100 to 102 °C

## CCC(Oc1cc(Cl)c2ncc(SC)cc2c1)C(=O)NC(C)C (stereo not shown)
other
  melting point: 143 to 145 °C

## CO/N=C/C(C)(C)NC(=O)C(OC)Oc1cc(Cl)c2ncc(SC)cc2c1 (stereo not shown) [Compound 47, 2-(8-Chloro-3-methylsulfanyl-quinolin-6-yloxy)-2-methoxy-N-(2-methoxyimino-1,1-dimethyl-ethyl)-acetamide]
Plasmopara viticola
  inhibition at 200 ppm: ≥ 80%
other
  melting point: 121 to 123 °C
[1]; [2]
  inhibition at 200 ppm: ≥ 80%

## C#CC(C)(C)NC(=O)C(OC)Oc1cc(C)c2ncc(SC)cc2c1 (stereo not shown)
other
  melting point: 124 to 127 °C

## COCC(C)(C#N)NC(=O)C(OC)Oc1cc(Cl)c2ncc(SC)cc2c1 (stereo not shown)
other
  melting point: 90 to 93 °C

## CCOc1cnc2c(C)cc(OC(SC)C(=O)NC(C)(C)C)cc2c1 (stereo not shown) [Compound 20, N-tert-Butyl-2-(3-ethoxy-8-methyl-quinolin-6-yloxy)-2-methylsulfanyl-acetamide]
other
  melting point: 181 to 183 °C
Pythium ultimum
  inhibition at 200 ppm: ≥ 80%

## COC(Oc1ccc2ncc(SC)cc2c1)C(=O)NC1CCC1 (stereo not shown) [Compound 61, N-Cyclobutyl-2-methoxy-2-(3-methylsulfanyl-quinolin-6-yloxy)-acetamide]
other
  melting point: 80 to 82 °C
[1]; [2]
  inhibition at 200 ppm: ≥ 80%

## CCC(Oc1ccc2ncc(SC)cc2c1)C(=O)NC(C)C (stereo not shown) [Compound 28, N-Isopropyl-2-(3-methylsulfanyl-quinolin-6-yloxy)-butyramide]
other
  melting point: 112 to 115 °C
Pythium ultimum
  inhibition at 200 ppm: ≥ 80%

## CC#CC(C)(C)NC(=O)C(OC)Oc1cc(Cl)c2ncc(SC)cc2c1 (stereo not shown) [Compound 48, 2-(8-Chloro-3-methylsulfanyl-quinolin-6-yloxy)-N-(1,1-dimethyl-but-2-ynyl)-2-methoxy-acetamide]
Plasmopara viticola
  inhibition at 200 ppm: ≥ 80%
other
  melting point: 90 to 92 °C

## CCC(Oc1cc(C)c2ncc(SC)cc2c1)C(=O)NC(C)(C)C (stereo not shown)
other
  melting point: 119 to 121 °C

## COC(Oc1cc(Cl)c2ncc(SC)cc2c1)C(=O)NC1(C)CCC1 (stereo not shown)
other
  melting point: 113 to 115 °C

## CCOCC(C)(C)NC(=O)C(Oc1ccc2ncc(SC)cc2c1)SC (stereo not shown) [Compound 66, N-(2-Ethoxy-1,1-dimethyl-ethyl)-2-methylsulfanyl-2-(3-methylsulfanyl-quinolin-6-yloxy)-acetamide]
[1]; [2]
  inhibition at 200 ppm: ≥ 80%

## CCC(Oc1ccc2ncc(OC)cc2c1)C(=O)NC(C)(C#N)COC (stereo not shown)
other
  melting point: 122 to 124 °C

## CCC(Oc1ccc2ncc(OC)cc2c1)C(=O)NC(C)(C)/C=N/OC (stereo not shown) [Compound 6, N-(2-Methoxyimino-1,1-dimethyl-ethyl)-2-(3-methoxy-quinolin-6-yloxy)-butyramide]
other
  melting point: 87 to 89 °C
[1]; [2]
  inhibition at 200 ppm: ≥ 80%
Pythium ultimum
  inhibition at 200 ppm: ≥ 80%

## C#CC(C)(C)NC(=O)C(OC)Oc1cc(Cl)c2ncc(SC)cc2c1 (stereo not shown)
other
  melting point: 116 to 118 °C

## COCC(C)(C#N)NC(=O)C(Oc1ccc2ncc(OC)cc2c1)SC (stereo not shown) [Compound 3, N-(1-Cyano-2-methoxy-1-methyl-ethyl)-2-(3-methoxy-quinolin-6-yloxy)-2-methylsulfanyl-acetamide]
other
  melting point: 75 to 77 °C
[1]; [2]
  inhibition at 200 ppm: ≥ 80%
Pythium ultimum
  inhibition at 200 ppm: ≥ 80%

## C#CC(C)(C)NC(=O)C(CC)Oc1cc(Cl)c2ncc(SC)cc2c1 (stereo not shown)
other
  melting point: 140 to 142 °C

## CC#CC(C)(C)NC(=O)C(OC)Oc1cc(C)c2ncc(SC)cc2c1 (stereo not shown) [Compound 46, N-(1,1-Dimethyl-but-2-ynyl)-2-methoxy-2-(8-methyl-3-methylsulfanyl-quinolin-6-yloxy)-acetamide]
Plasmopara viticola
  inhibition at 200 ppm: ≥ 80%
other
  melting point: 102 to 104 °C

## COC(Oc1ccc2ncc(SC)cc2c1)C(=O)NC(C)(C)C (stereo not shown) [Compound 60, N-tert-Butyl-2-methoxy-2-(3-methylsulfanyl-quinolin-6-yloxy)-acetamide]
other
  melting point: 119 to 121 °C
[1]; [2]
  inhibition at 200 ppm: ≥ 80%

## CCC(Oc1cc(C)c2ncc(SC)cc2c1)C(=O)NC1CCC1 (stereo not shown)
other
  melting point: 136 to 138 °C

## COC(Oc1cc(Cl)c2ncc(SC)cc2c1)C(=O)NC1CCC1 (stereo not shown)
other
  melting point: 128 to 130 °C

## CO/N=C/C(C)(C)NC(=O)C(OC)Oc1cc(C)c2ncc(SC)cc2c1 (stereo not shown) [Compound 43, 2-Methoxy-N-(2-methoxyimino-1,1-dimethyl-ethyl)-2-(8-methyl-3-methylsulfanyl-quinolin-6-yloxy)-acetamide]
Plasmopara viticola
  inhibition at 200 ppm: ≥ 80%
other
  melting point: 109 to 111 °C

## CO/N=C/C(C)(C)NC(=O)C(Oc1cc(Cl)c2ncc(SC)cc2c1)SC (stereo not shown) [Compound 31, 2-(8-Chloro-3-methylsulfanyl-quinolin-6-yloxy)-N-(2-methoxyimino-1,1-dimethyl-ethyl)-2-methylsulfanyl-acetamide]
Plasmopara viticola
  inhibition at 200 ppm: ≥ 80%
other
  melting point: 168 to 170 °C
Pythium ultimum
  inhibition at 200 ppm: ≥ 80%

## CCC(Oc1cc(C)c2ncc(SC)cc2c1)C(=O)NC(C)C (stereo not shown)
other
  melting point: 132 to 134 °C

## CCC(Oc1cc(Cl)c2ncc(SC)cc2c1)C(=O)NC(C)(C)/C=N/OC (stereo not shown) [Compound 39, 2-(8-Chloro-3-methylsulfanyl-quinolin-6-yloxy)-N-(2-methoxyimino-1,1-dimethyl-ethyl)-butyramide]
Plasmopara viticola
  inhibition at 200 ppm: ≥ 80%
other
  melting point: 119 to 121 °C

## CCC(Oc1cc(Cl)c2ncc(SC)cc2c1)C(=O)NC(C)(C)C (stereo not shown)
other
  melting point: 134 to 136 °C

## COC(Oc1cc(Cl)c2ncc(SC)cc2c1)C(=O)NC(C)(C)C (stereo not shown)
other
  melting point: 125 to 127 °C

## COC(Oc1cc(C)c2ncc(SC)cc2c1)C(=O)NC(C)(C)C (stereo not shown)
other
  melting point: 146 to 148 °C

## COCC#CC(C)(C)NC(=O)C(OC)Oc1cc(Cl)c2ncc(SC)cc2c1 (stereo not shown) [Compound 49, 2-(8-Chloro-3-methylsulfanyl-quinolin-6-yloxy)-2-methoxy-N-(4-methoxy-1,1-dimethyl-but-2-ynyl)-acetamide]
Plasmopara viticola
  inhibition at 200 ppm: ≥ 80%
other
  melting point: 85 to 87 °C

## C#CC(C)(C)NC(=O)C(OC)Oc1ccc2ncc(OC)cc2c1 (stereo not shown) [Compound 9, N-(1,1-Dimethyl-prop-2-ynyl)-2-methoxy-2-(3-methoxy-quinolin-6-yloxy)-acetamide]
other
  melting point: 124 to 127 °C
[1]; [2]
  inhibition at 200 ppm: ≥ 80%

## CC#CC(C)(C)NC(=O)C(OC)Oc1ccc2ncc(SC)cc2c1 (stereo not shown) [Compound 57, N-(1,1-Dimethyl-but-2-ynyl)-2-methoxy-2-(3-methylsulfanyl-quinolin-6-yloxy)-acetamide]
other
  melting point: 63 to 65 °C
[1]
  inhibition at 200 ppm: ≥ 80%

## COCC#CC(C)(C)NC(=O)C(OC)Oc1ccc2ncc(SC)cc2c1 (stereo not shown) [Compound 58, 2-Methoxy-N-(4-methoxy-1,1-dimethyl-but-2-ynyl)-2-(3-methylsulfanyl-quinolin-6-yloxy)-acetamide]
other
  melting point: 74 to 76 °C
[1]
  inhibition at 200 ppm: ≥ 80%

## COC(Oc1cc(Cl)c2ncc(SC)cc2c1)C(=O)NC(C)C (stereo not shown) [Compound 52]
other
  melting point: 115 to 118 °C
[1]; [2]
  inhibition at 200 ppm: ≥ 80%
